From paper PMC6934184, “Selective DNA-PKcs inhibition extends the therapeutic index of localized radiotherapy and chemotherapy” (The Journal of Clinical Investigation, 2019)

Biological target: T1, NTRK2 (TRKB) (Homo sapiens, UniProt Q16620)
T1 construct: purchased Thermo Fisher Scientific (Life Technologies) SelectScreen
Test: SelectScreen Z'LYTE
Type: biochemical
Method in brief: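 SelectScreen broad panel; activity (Z'LYTE, Adapta) plus binding formats. ATP: Km app for CSF1R Z'LYTE; 10 for CAMK1 Adapta. Readout = % per kinase.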

T1 sequence (Q16620 32-822): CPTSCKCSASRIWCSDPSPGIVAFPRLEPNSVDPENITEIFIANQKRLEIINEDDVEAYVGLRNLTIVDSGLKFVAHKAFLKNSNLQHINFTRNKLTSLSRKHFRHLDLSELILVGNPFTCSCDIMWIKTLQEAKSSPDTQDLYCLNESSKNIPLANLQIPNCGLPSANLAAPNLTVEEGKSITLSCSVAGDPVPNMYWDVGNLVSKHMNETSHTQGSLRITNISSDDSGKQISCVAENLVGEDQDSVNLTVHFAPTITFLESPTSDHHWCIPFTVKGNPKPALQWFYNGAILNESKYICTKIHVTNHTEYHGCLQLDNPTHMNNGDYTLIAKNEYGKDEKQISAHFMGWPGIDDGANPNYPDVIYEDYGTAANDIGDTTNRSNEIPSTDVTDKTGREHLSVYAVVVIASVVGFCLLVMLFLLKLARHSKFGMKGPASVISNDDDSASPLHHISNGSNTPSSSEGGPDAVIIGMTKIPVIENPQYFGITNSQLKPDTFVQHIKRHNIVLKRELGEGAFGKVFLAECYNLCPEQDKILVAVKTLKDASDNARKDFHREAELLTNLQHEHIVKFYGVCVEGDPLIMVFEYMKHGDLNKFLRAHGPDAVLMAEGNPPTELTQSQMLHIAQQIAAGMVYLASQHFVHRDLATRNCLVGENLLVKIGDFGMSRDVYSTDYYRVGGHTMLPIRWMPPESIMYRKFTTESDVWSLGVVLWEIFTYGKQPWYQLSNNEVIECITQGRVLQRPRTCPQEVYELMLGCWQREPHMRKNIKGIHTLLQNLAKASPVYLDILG

CN(C(=O)CN1CCOCC1)c1ccc2sc3c(-c4cccc5c(=O)cc(N6CC7CCC(C6)O7)oc45)cccc3c2c1 [NU5455]
inhibition at 1 µM: 5.1%
